A melting point compilation (Tetko et al.; mined from patent text by program, amines drawn as free bases though some values may be those of a salt)

| melting point | Structure (SMILES) |
| --- | --- |
| 183 to 184 °C | O=C1[C@H]2CCC[C@H]2N(C(=O)Cn2ccnc2)c2ccccc2N1Cc1ccccc1 (relative stereo) |
| > 300 °C | CCc1ccc(S(=O)(=O)c2c(N)c3nncn3c3nc4ccccc4nc23)cc1 |
| 176 °C | CCOc1nc2cc(C)nn2c2cc(Cl)ncc12 |
| 174 °C | CN(Cc1cccc(-c2ccc(O)cc2)c1)C(=O)OC(C)(C)C |
| 191 to 193 °C | Nc1ccc(S(=O)(=O)Nc2nc(-c3cccc([N+](=O)[O-])c3)cs2)cc1 |
| 128 to 130 °C | COC(=O)c1cc2c3c(cc(OCc4ccccc4)c2[nH]1)N(C(=O)OC(C)(C)C)C[C@H]3COC(C)=O |
| 150 °C | Nc1ccc(C(=O)CCCCl)cc1[N+](=O)[O-] |
| 91 to 92 °C | CC(=O)CSc1c([N+](=O)[O-])ccc(F)c1Cl |
| 177 to 179 °C | COC(=O)c1ccc(CC#N)cc1S(=O)(=O)NC(=O)Nc1nc(OC)cc(OC)n1 |
| 229 °C | Cc1cc(C)c2nc(NCCC(N)=O)n(Cc3nc(C)ccc3O)c2c1 |
| 229 to 231 °C | O=C(O)Cn1c(-c2ccc(Br)o2)nc2cccnc21 |
| 103 to 104 °C | CCN(CC)CCn1c(Cl)c(C(=O)NC)c2ccccc21 |
| 177 to 178 °C | Oc1cc(-c2nn3c(c2Cl)CCCC3)c(F)cc1Cl |
| 200 °C | N#Cc1c(O)cccc1[N+](=O)[O-] |
| 166 to 168 °C | COc1cc2c(Nc3ccc(Cl)cc3F)c(C#N)cnc2c(OC)c1OC |
| 142 to 143 °C | CSc1cc(C(F)(F)F)nn1-c1ccc(NC(=O)c2ccncc2F)cc1 |
| 116 to 117 °C | O=C(O)Cc1cc(OCc2cccc(Oc3ccccc3)c2)ccc1Nc1c(Cl)cccc1Cl |
| 130 to 132 °C | O=C(O)CC1CCCCC1Oc1ccc(C(=O)c2ccc(Cl)cc2)cc1 (stereo unspecified) |
| 146 to 148 °C | O=CN1CCN(CCSc2nc3ccccc3[nH]2)CC1 |
| 161 to 162 °C | Nc1ccccc1SC[C@H](NC(=O)OCc1ccccc1)C(=O)O |
| 148 to 150 °C | CC(=O)Oc1ccc2c(c1)CCC1C2CCC2(C)C(OC(=O)c3ccccc3)CCC12 (stereo unspecified) |
| 65 to 66 °C | COc1cc(OC)c(F)c(NCc2ccccc2)c1F |
| 196 to 198 °C | CN(C)NC(=O)N(O)C1c2ccccc2Oc2ccccc21 |
| 188 to 190 °C | Cc1cc(-c2cn(-c3cccc(OCCCl)c3)c3ncnc(N)c23)cc(C)c1OCc1ccccc1 |

| melting point | Structure (SMILES) |
| --- | --- |
| 245 °C | Cc1nc(CN2CCc3sc(Nc4ncc(F)cn4)nc3-c3c[nH]nc32)no1 |
| 227 to 229 °C | CC(C)Oc1ccc(-c2nn(C(C)c3oc4cccc(N5CCOCC5)c4c(=O)c3-c3cccc(F)c3)c3ncnc(N)c23)cc1F (stereo unspecified) |
| 166 to 168 °C | O=C(O)c1ccc(NC(=O)C(CS)Cc2ccccc2)cc1 (stereo unspecified) |
| 157 to 158 °C | CSc1ncncc1C1c2cc(C#N)ccc2CC1(C)C (stereo unspecified) |
| 104 to 106 °C | COCc1nc2c(C(F)(F)F)cccc2c(=O)o1 |
| 198 °C | CCOC(=O)C1=C(COCCNC(N)=S)NC(C)=C(C(=O)OC)C1c1cccc(Cl)c1Cl (stereo unspecified) |
| 156 °C | N#Cc1ccc(C(=O)c2ccc(S)cc2)cc1 |
| 119 to 120 °C | CC1(C)CC(=O)c2cc(C#N)ccc2O1 |
| 200 to 201 °C | CS(=O)c1cc(C(=O)O)c(Cl)cc1Cl (stereo unspecified) |
| 164 to 166 °C | CC(C)(C)OC(=O)NC1CCCCCC=CC2CC2(C(=O)NS(=O)(=O)C2CC2)NC(=O)C2CC(OC(=O)c3ccc(C#N)cc3)CN2C1=O (stereo unspecified) |
| 206 to 209 °C | CCCCCCCCCCCCCC(=O)Nc1ccc(C2=NNC(=O)NC2C)cc1 (stereo unspecified) |
| 197 to 200 °C | C=CCN1C(=O)COc2cc(F)c(-n3c(=O)cc(CC)[nH]c3=O)cc21 |
| 91 to 93 °C | CCCn1nc(-c2ccc(Cl)c(Cl)c2)c(-n2ccnc2)c1SC |
| 186 to 187 °C | O=C(CCl)Nc1c(S)cccc1Cl |
| 237 to 244 °C | O=c1[nH]c2ccc(-c3cc(CN4CCC(Cc5ccc(F)cc5)CC4)on3)cc2o1 |
| 176 to 178 °C | O=c1c(Br)c(OCc2ccc(F)c(F)c2F)ccn1Cc1cccc(F)c1 |
| 140 to 141 °C | CC(C)N=c1[nH]c2ccc(Cl)cc2c2nc(-c3ccco3)nn12 |
| 196 °C | CC(=O)OC1CSC(Oc2cncc(-c3ccc(N4CCCCC4)cc3)c2)C(OC(C)=O)C1OC(C)=O (stereo unspecified) |
| 108 to 116 °C | CCNc1c(C(F)(F)F)cc([N+](=O)[O-])c(NN(C)C)c1[N+](=O)[O-] |
| 246 to 247 °C | O=C1CCC2=C1C(c1ccc(Br)s1)C1=C(CCS1)N2 (stereo unspecified) |
| 73 to 75 °C | CC1CNCCNCCNCCNCCN1 (stereo unspecified) |
| 111 to 113 °C | COc1ccc2c(c1)NC(=O)C(CCO)O2 (stereo unspecified) |
| 195 to 200 °C | O=C1COc2ccc(C3=Nc4ccccc4SC3c3ccccc3Cl)cc2N1 (stereo unspecified) |
| 80 to 81 °C | C[C@H](CO)Cn1c2ccccc2c2ccccc21 |

| melting point | Structure (SMILES) |
| --- | --- |
| 150 to 153 °C | Cc1cccc(N2C(=S)SCC2(C)O)n1 (stereo unspecified) |
| 168 °C | COc1ccc(-c2cc3c4n(ccc-3n2)CC(C)=N4)cc1 |
| 98 to 99 °C | CC(C)(CCCC(C(O)C(C)(C)C)n1cncn1)c1ccccc1 (stereo unspecified) |
| > 250 °C | C=CCOC(=O)c1[nH]c2cc(Cl)cc(Cl)c2c1C=C1NC(=O)N(c2ccccc2)C1=O |
| 234 to 235 °C | Cc1ccc(-c2nc(=S)n(Cc3ccccc3)[nH]2)cc1 |
| 121 to 122 °C | COc1ccc2c(n1)CC(=O)N2CCCO |
| 207 to 208 °C | CCc1cnc(N2CCN(C(=O)c3ccc(CNc4nc(-c5ccccc5)nc5ccccc45)cc3)CC2)nc1 |
| 217 °C | CC1(C)[C@@H](C(=O)O)[C@@H]1C(=O)O (relative stereo) |
| 66 to 67 °C | CC(=O)Nc1ccc(CCCOCCCCCCNCC(O)c2cc(Cl)c(N)c(Cl)c2)nc1 (stereo unspecified) |
| 201 °C | C[C@@H](n1cnc2cc(N(C)C)ccc2c1=O)[C@](O)(Cn1cncn1)c1ccc(F)cc1F |
| 139 to 140 °C | CCOP(=O)(OCC)c1ccc(NC(=O)CCc2oc(-c3ccccc3)nc2-c2ccc(Cl)cc2)cc1 |
| 160 to 165 °C | CC(=O)Oc1cc(C(=O)N2CCC(C(=O)C3CCCCC3)CC2)c([N+](=O)[O-])cc1OC(C)=O |
| 71 to 73 °C | COC(=O)c1cc(C)cc(C=O)c1 |
| 234 to 235 °C | O=C(Nc1noc2ccccc12)N1CCN(c2nc(-c3ccccc3)ns2)CC1 |
| 272 to 273 °C | CN(C)CC(=O)NCc1cccc(-c2cc3c(Nc4ccc(F)c(Cl)c4)ncnc3[nH]2)c1 |
| 162 to 165 °C | Cc1ncc(CN2CCN(CCc3ccccc3)CC2)c(N)n1 |
| > 250 °C | COc1ccc2cc(-c3ccc(Br)cc3)[nH]c(=O)c2c1 |
| 148 to 149 °C | CN1C(=O)CC2(CC1=O)c1ccccc1Oc1ccccc12 |
| 136 to 138 °C | Cc1cccc(NC(c2ccc(C(F)(F)F)cc2)c2ccc3cccnc3c2O)n1 (stereo unspecified) |
| 146 to 150 °C | O=Cc1cc(Oc2c(Cl)cc(-n3ncc(=O)[nH]c3=O)cc2Cl)ccc1O |
| 136 to 138 °C | COCCOc1ccc(CCC(=O)NS(=O)(=O)c2ccc(F)cc2)c(Oc2ncc(C(F)(F)F)cc2Cl)c1 |
| 196 to 201 °C | CC(C)(C)c1cc(N2C(=O)c3ccccc3C2=O)cc(C(C)(C)C)c1O |
| 178 to 179 °C | Cn1c(NC(=N)N)nc2ccccc21 |
| 169 to 170 °C | Cc1ccc(C)c(C2CC(=O)C=C(N)C2)c1 (stereo unspecified) |

| melting point | Structure (SMILES) |
| --- | --- |
| 141 to 142 °C | Cc1oc(-c2ccccc2)nc1COc1cncc(COc2ccc(CC(=O)O)cc2)c1 |
| 69 to 70 °C | CCOC(=O)CN1C(=O)COc2c(Cl)nc(C)nc21 |
| 68 to 69 °C | COCOc1ccc([N+](=O)[O-])c(C=O)c1 |
| 284 to 286 °C | CN(C)C(=O)c1nc2cnc3ccccc3c2[nH]1 |
| 203 to 205 °C | O=c1[nH]ccc2nc(C(F)(F)F)nn12 |
| 198 to 200 °C | CNCC(=O)N1N=C(c2ccc(N)cc2)c2cc3c(cc2CC1C)OCO3 (stereo unspecified) |
| 70 to 71 °C | COc1ccc(-c2nn(C3CCCC3)c3c(F)cccc23)cc1 |
| 192 to 193 °C | CC(C)c1c(CC[C@@H]2C[C@@H](O)CC(=O)O2)n(-c2ccc(F)cc2)c(=O)c2ccccc12 |
| 77 to 79 °C | COC(=O)c1ccc(OC)c(C(F)(F)F)c1 |
| 275 to 277 °C | Cc1cc(C)c2nc3n(c(=O)c2c1)-c1ccc(F)cc1C3=O |
| 75 to 77 °C | Cc1cc(-c2cc(O)c(SCCc3ccccc3)c(=O)o2)ccc1OCc1ccccn1 |
| 235 to 236 °C | COCCOc1cc(NS(=O)(=O)c2ccccn2)c2[nH]c(C3=NCC(CN4CCS(=O)CC4)S3)cc2c1 (stereo unspecified) |
| 120 °C | COC(=O)c1ccc(OC)c(NC(=NCl)c2ccccc2)c1 |
| 149 to 150 °C | CCOC(=O)c1ccc(NC(=O)OC(C)(C)C)cc1 |
| 178 to 180 °C | CS(=O)(=O)c1ccc(-c2cnn(-c3ccc(F)c(F)c3)c(=O)c2Oc2ccc(F)cc2)cc1 |
| 94 to 96 °C | O=C1CCc2c(Cl)cc(F)cc21 |
| 93 to 94 °C | OCc1conc1-c1ccc(F)c(Br)c1 |
| 116 to 119 °C | CCN(C(C)=O)c1cccc(-c2ccc(Cl)nn2)c1 |
| 237 to 238 °C | CCNC(=S)Nc1ccc2ncc(Nc3cc(OC)c(OC)c(OC)c3)cc2n1 |
| 163 to 165 °C | O=C1CCC(N2C(=O)c3ccc(CNC(=O)C4CC4)cc3C2=O)C(=O)N1 (stereo unspecified) |
| 69 to 71 °C | CC(=Cc1ccc(Oc2ccc(Cl)cc2)cc1)[N+](=O)[O-] |
| 260 to 262 °C | O=C1NC(=O)c2c1c(-c1ccccc1)cc1c2c2cc(O)ccc2n1CCN1CCOCC1 |
| 41 to 43 °C | CCC(=O)c1ccc(OCCCCl)cc1 |
| 87 to 89 °C | CC(O)c1ccc(Cl)c(Cl)c1Cl (stereo unspecified) |

| Structure (SMILES) | melting point |
| --- | --- |
| O=C(NC12CC3CC(CC(C3)C1)C2)c1ncn(-c2ccccc2)c1Br | 229 to 232 °C |
| C#Cc1c2c3c(cccc3n1C)C1CC(NC(=O)N(CC)CC)CN(C)C1C2 (stereo unspecified) | 126 °C |
| N#Cc1cc(C2=NOC(c3cc(Cl)cc(Cl)c3)(C(F)(F)F)C2)ccc1-n1cncn1 (stereo unspecified) | 118 to 125 °C |
| Cc1nc2cc(OCCCN3CC=C(c4c[nH]c5ccc(C#N)cc45)CC3)ccc2s1 | 263 to 265 °C |
| CC(=O)N(C)C(=N[N+](=O)[O-])NCc1csc(Cl)n1 | 105 to 108 °C |
